Measured values published in ChEMBL document CHEMBL1201862, “PubChem BioAssay data set” (2004).
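These data come from cells grown in 96-well plates and exposed to compound for 48 hours at five concentrations. The concentration for 50% growth inhibition is given as GI50.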 Calls of active or inactive are those of the source. No stated cut-off is given here; in the data, active = GI50 up to about 1.1 µM and inactive = higher.

Columns and labels:
Assay in all cases: inhibition of tumour cell growth, NCI panel, 48 h
NCI-H460 = tested on: NCI-H460
786-0 = tested on: 786-0
NCI/ADR-RES = tested on: NCI/ADR-RES
SK-OV-3 = tested on: SK-OV-3
PC-3 = tested on: PC-3
MDA-MB-231 = tested on: MDA-MB-231
IGROV-1 = tested on: IGROV-1
RPMI-8226 = tested on: RPMI-8226
UO-31 = tested on: UO-31
HOP-62 = tested on: HOP-62
ACHN = tested on: ACHN
HT-29 = tested on: HT-29
EKVX = tested on: EKVX
SK-MEL-5 = tested on: SK-MEL-5
HCT-116 = tested on: HCT-116
A549 = tested on: A549
OVCAR-4 = tested on: OVCAR-4
KM12 = tested on: KM12
COLO 205 = tested on: COLO 205
K562 = tested on: K562

Measured: GI50

Clc1ccc(-c2cn3c(nc4ccccc43)c(-c3ccccc3)n2)cc1
inactive: NCI-H460 18 µM | 786-0 9.35 µM | NCI/ADR-RES 34.9 µM | SK-OV-3 11.6 µM | PC-3 18.7 µM | MDA-MB-231 42.6 µM | IGROV-1 24 µM | RPMI-8226 > 100 µM | UO-31 24.2 µM | HOP-62 11.5 µM | ACHN 29.6 µM | HT-29 10.8 µM | EKVX 64.3 µM | SK-MEL-5 17.7 µM | HCT-116 29.9 µM | A549 17.4 µM | OVCAR-4 5.85 µM | KM12 > 57.5 µM | COLO 205 40.2 µM | K562 > 84.7 µM

Clc1sc(Cl)c2c1[C@H](Br)C[C@@H]2Cl
inactive: NCI-H460 41.6 µM | 786-0 32.9 µM | NCI/ADR-RES 17.7 µM | SK-OV-3 > 100 µM | PC-3 40.3 µM | MDA-MB-231 21.4 µM | IGROV-1 13.2 µM | RPMI-8226 30.2 µM | UO-31 18.3 µM | HOP-62 83.9 µM | ACHN 18.8 µM | HT-29 35 µM | EKVX 35.9 µM | SK-MEL-5 46.9 µM | HCT-116 27.9 µM | A549 32.9 µM | OVCAR-4 55.8 µM | KM12 39.8 µM | COLO 205 20.1 µM | K562 38.5 µM

CN(C)CCNc1ncnc2[nH]c(-c3ccc4ccccc4c3)nc12
inactive: NCI-H460 > 100 µM | 786-0 > 100 µM | NCI/ADR-RES > 100 µM | SK-OV-3 > 100 µM | PC-3 > 100 µM | MDA-MB-231 > 100 µM | IGROV-1 > 100 µM | RPMI-8226 > 100 µM | UO-31 > 100 µM | HOP-62 > 100 µM | ACHN > 100 µM | HT-29 > 100 µM | EKVX > 100 µM | SK-MEL-5 > 100 µM | HCT-116 > 100 µM | A549 > 100 µM | OVCAR-4 > 100 µM | KM12 > 100 µM | COLO 205 > 100 µM | K562 > 100 µM

Cc1n[nH]c(=O)n1-n1cccc1
inactive: NCI-H460 > 100 µM | 786-0 > 100 µM | NCI/ADR-RES > 100 µM | SK-OV-3 > 100 µM | PC-3 > 100 µM | MDA-MB-231 > 100 µM | IGROV-1 > 100 µM | RPMI-8226 > 100 µM | UO-31 > 100 µM | HOP-62 > 100 µM | ACHN > 100 µM | HT-29 > 100 µM | EKVX > 100 µM | SK-MEL-5 > 100 µM | HCT-116 > 100 µM | A549 > 100 µM | OVCAR-4 > 100 µM | KM12 > 100 µM | COLO 205 > 100 µM | K562 > 100 µM

CCOC(=O)NC(Nc1ccc(F)c(F)c1)(C(=O)OCC)C(F)(F)F (stereo not given)
inactive: NCI-H460 > 100 µM | 786-0 > 100 µM | NCI/ADR-RES > 68.5 µM | SK-OV-3 > 100 µM | PC-3 > 80.5 µM | MDA-MB-231 > 100 µM | IGROV-1 > 28.1 µM | RPMI-8226 > 100 µM | UO-31 > 65.6 µM | HOP-62 > 100 µM | ACHN 27 µM | HT-29 > 100 µM | EKVX > 100 µM | SK-MEL-5 13.8 µM | HCT-116 > 40.8 µM | A549 > 100 µM | OVCAR-4 > 46.3 µM | KM12 3.23 µM | COLO 205 > 60.4 µM | K562 17.8 µM
